Data as given in patent US20160214956A1, “NOVEL SOLUBLE GUANYLATE CYCLASE ACTIVATORS AND THEIR USE” (GLAXOSMITHKLINE INTELLECTUAL PROPERTY DEVELOPMENT LIMITED, priority 2013, published 2016).

Target: T1, human sGC (Homo sapiens, UniProt Q02153)
T1 sequence (Q02153 1-619): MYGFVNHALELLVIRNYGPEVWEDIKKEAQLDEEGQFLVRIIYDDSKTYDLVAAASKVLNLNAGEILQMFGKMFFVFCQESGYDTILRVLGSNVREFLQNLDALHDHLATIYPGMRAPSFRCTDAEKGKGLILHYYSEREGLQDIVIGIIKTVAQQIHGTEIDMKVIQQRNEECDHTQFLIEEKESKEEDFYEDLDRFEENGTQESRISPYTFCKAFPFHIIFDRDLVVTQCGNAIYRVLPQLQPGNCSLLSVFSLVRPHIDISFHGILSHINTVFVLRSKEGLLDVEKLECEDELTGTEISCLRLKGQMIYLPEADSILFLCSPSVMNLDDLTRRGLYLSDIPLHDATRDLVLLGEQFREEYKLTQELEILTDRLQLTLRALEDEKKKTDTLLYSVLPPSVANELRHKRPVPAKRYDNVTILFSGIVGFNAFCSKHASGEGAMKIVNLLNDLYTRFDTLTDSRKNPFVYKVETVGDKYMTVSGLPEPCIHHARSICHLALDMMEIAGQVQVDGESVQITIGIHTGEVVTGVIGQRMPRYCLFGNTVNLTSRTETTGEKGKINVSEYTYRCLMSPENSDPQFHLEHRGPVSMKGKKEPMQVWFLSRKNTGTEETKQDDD
T1 sequence (Q02108 1-690 partner): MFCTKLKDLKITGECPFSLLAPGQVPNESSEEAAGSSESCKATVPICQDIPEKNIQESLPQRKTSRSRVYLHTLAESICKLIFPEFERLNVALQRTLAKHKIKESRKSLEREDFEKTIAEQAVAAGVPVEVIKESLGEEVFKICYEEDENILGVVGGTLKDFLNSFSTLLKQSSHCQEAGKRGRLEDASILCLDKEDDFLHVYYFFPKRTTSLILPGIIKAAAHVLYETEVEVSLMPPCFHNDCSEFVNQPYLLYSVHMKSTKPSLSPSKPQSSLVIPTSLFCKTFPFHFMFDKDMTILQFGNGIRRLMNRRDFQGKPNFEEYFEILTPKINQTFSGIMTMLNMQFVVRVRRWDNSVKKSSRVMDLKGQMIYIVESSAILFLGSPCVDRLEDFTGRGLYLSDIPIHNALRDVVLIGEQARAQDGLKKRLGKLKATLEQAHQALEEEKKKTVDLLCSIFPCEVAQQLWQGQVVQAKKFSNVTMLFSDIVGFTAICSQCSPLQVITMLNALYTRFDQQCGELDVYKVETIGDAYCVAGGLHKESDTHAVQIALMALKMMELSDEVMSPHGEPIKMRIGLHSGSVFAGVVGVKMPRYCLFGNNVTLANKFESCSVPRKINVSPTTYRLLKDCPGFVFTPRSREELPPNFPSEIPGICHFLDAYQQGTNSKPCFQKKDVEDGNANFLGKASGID
Experiment: sGC enzyme assay, fluorescence polarisation of labelled cGMP
Type: biochemical
Conditions: human sGC 1 nM, FP assay; concentration able to increase by 5-fold basal cGMP
Experimental: The activity of soluble guanylate cyclase (sGC) was tested in an assay based on measuring the fluorescent polarisation (FP) signal of fluorescently labelled cGMP. FP increased on interaction with an anti-cGMP antibody as the motility of the molecule was reduced. Newly produced cGMP displaced the interaction giving rise to a decrease in polarisation and FP signal which was equated to enzyme activity. Compounds were incubated with human sGC, anti-cGMP antibody, the GTP substrate and fluorescently labelled cGMP. After a period of one hour the assay was stopped with the addition of EDTA and after a further hour the assay was read.
Human sGC was thawed and resuspended in assay buffer (100 mM TRIS, 10 mM MgCl2, 0.2 mM Tween 20, pH7.4, containing 1:100 dilution of sheep anti-cGMP) to give final concentration of 1 nM in the well. A substrate solution was prepared containing GTP and 8-fluo-cGMP in de-ionized water to a final concentration of 25 μM and 50 nM respectively. Assay plates containing 5 μL of various test compounds and of a standard agonist (50 μM-50 nM) in 1% DMSO as 6 point, four fold dilutions across a 96 well plate were used in the assay. The plate also contained 6 wells of DMSO (1%) to produce high control and a cGMP standard curve (14 nM to 10 μM) to convert FP data to cGMP concentration. 25 μL of enzyme mix and 20 μl of substrate mix described above were added to each well of the plate. Samples were mixed on an orbital shaker and then incubated at room temperature for 1 hour. After this incubation period 5 μl of 0.5M EDTA was added to all wells and the plates were incubated for a further hour at room temperature prior to reading the FP signal in an appropriate reader. For data handling FP data were converted to cGMP concentrations and then fitted using ActivityBase software. The activity of a test compound was determined as the pEC500 value which is the concentration able to increase by 5-fold basal cGMP.

Structure (SMILES)	sGC pEC500
O=C(O)c1cnn(-c2cccc(-c3ccccc3CCc3ccc(OCCCN4CCOCC4)cc3)n2)c1C(F)(F)F [Example 2, 1-(6-(2-(4-(3-morpholinopropoxy)phenethyl)phenyl)pyridin-2-yl)-5-(trifluoromethyl)-1H-pyrazole-4-carboxylic acid]	6.19
COCCCOc1ccc(COc2ccccc2-c2cccc(-n3ncc(C(=O)O)c3C(F)(F)F)n2)cc1 [Example 7, 1-(6-(2-((4-(3-methoxypropoxy)benzyl)oxy)phenyl)pyridin-2-yl)-5-(trifluoromethyl)-1H-pyrazole-4-carboxylic acid]	7.1
COCCOc1ccc(COc2ccccc2-c2cccc(-n3ncc(C(=O)O)c3C(F)(F)F)n2)cc1 [Example 4, 1-(6-(2-((4-(2-methoxyethoxy)benzyl)oxy)phenyl)pyridin-2-yl)-5-(trifluoromethyl)-1H-pyrazole-4-carboxylic acid]	6.6

The next lines start with the values.

sGC pEC500	Structure (SMILES)
7.28	N#CCCCOc1ccc(COc2ccccc2-c2cccc(-n3ncc(C(=O)O)c3C(F)(F)F)n2)cc1 [Example 8, 1-(6-(2-((4-(3-cyanopropoxy)benzyl)oxy)phenyl)pyridin-2-yl)-5-(trifluoromethyl)-1H-pyrazole-4-carboxylic acid]
6.59	Cc1cc(OCCCC(=O)O)ccc1COc1ccccc1-c1cccc(-n2ncc(C(=O)O)c2C(F)(F)F)n1 [Example 12, 1-(6-(2-((4-(3-carboxypropoxy)-2-methylbenzyl)oxy)phenyl)pyridin-2-yl)-5-(trifluoromethyl)-1H-pyrazole-4-carboxylic acid]
